Patent US8426406B2, “Glucocorticoid receptor agonist comprising 2,2,4-trimethyl-6-phenyl-1,2-dihydroquinoline derivatives having substituted oxy group” (Santen Pharmaceutical Co., Ltd., priority 2008, dated 2013)

Test system: IL-6 production induced by lipopolysaccharide (LPS) in human corneal epithelial cells
Experiment: Evaluation test for GR agonist activity: inhibition of LPS-induced IL-6 production in human corneal epithelial cells (HCE-T)
Assay type: cell-based
Details: Corneal epithelial cell, 10 μL of 100 μM test compound solution per well, 4 hours incubation, efficacy relative to DEX
Experimental: In order to evaluate a GR agonist activity of the present compound, the inhibitory effects on the IL-6 production induced by lipopolysaccharide (LPS) in human corneal epithelial cells. IL-6 levels in the conditioned medium were measured using the HTRF human IL-6 Kit (boehringer-Ingelheim, Cat No. 62IL6PEB), and the procedure was carried out according to the protocol attached to the kit. Hereinafter, the specific method will be described.
LPS solution: After LPS was dissolved in phosphate buffer solution (hereinafter referred to as PBS(−)), the resulting solution was diluted with 10% FBS-DMEM/F12 medium, whereby a 1 μg/mL LPS solution was prepared.
After a test compound was dissolved in dimethylsulfoxide (hereinafter referred to as DMSO), the resulting solution was diluted with 10% FBS-DMEM/F12 medium, whereby a 100 μM test compound solution was prepared. A 100 μM DEX solution was prepared by the same method, and the inhibitory ratio of IL-6 production of DEX was evaluated to use for calculating efficacy (% DEX).
Used cell: SV40-immortalized human corneal epithelial cells (HCE-T) (RIKEN)
1) HCE-T cells were harvested, and seeded at 2.0×10^4 cells/0.1 mL/well in a 96-well plate.
2) After incubation overnight, the medium was removed and a 80 μL of new 10% FBS-DMEM/Ham's F12 medium was added into each well.
3) A 10 μL of test compounds solution was added into each well.
4) A 10 μL of LPS solution was added into each well.
5) As a negative control, a 10 μL of 10% FBS-DMEM/Ham's F12 medium was added into each well instead of a test compound solution and a LPS solution.
6) As a positive control, a 10 μL of 10% FBS-DMEM/Ham's F12 medium containing 1% DMSO was added into each well instead of a test compound solution.
7) After 4 hours incubation, supernatants were collected and IL-6 levels in the supernatants were quantitated using the HTRF human IL-6 Kit.
8) The inhibition ratio of IL-6 production (%) was calculated according to the following equation.
The inhibition ratio of IL-6 production (%) was calculated according to the following equation. The inhibition ratio of IL-6 production(%)=100×[1−(IL-6 level in each group−mean value of IL-6 level in negative control)/(mean value of IL-6 level in positive control−mean value of IL-6 level in negative control)](%)
Furthermore, the inhibition ratio of IL-6 production (efficacy (% DEX)) was also calculated according to the following equation. Efficacy(% DEX)=100×{(mean value of IL-6 inhibition in compound-treated group)/(mean value of IL-6 inhibition in DEX-treated group)}(%) (Result and Discussion)

Molecule `COc1cc(OC(=O)c2cccnc2)ccc1-c1ccc2c(c1COC(=O)c1ccc(Br)s1)C(C)=CC(C)(C)N2` [Compound 1-160, 5-(5-Bromothiophen-2-ylcarbonyloxymethyl)-6-[2-methoxy-4-(pyridin-3-ylcarbonyloxy)phenyl]-2,2,4-trimethyl-1,2-dihydroquinoline] has an Emax of 88%.
With `COc1ccccc1NCc1c(-c2ccc(OC(=O)c3ccoc3)cc2OC)ccc2c1C(C)=CC(C)(C)N2` [Compound 1-95, 6-[4-(Furan-3-ylcarbonyloxy)-2-methoxyphenyl]-5-(2-methoxyphenylaminomethyl)-2,2,4-trimethyl-1,2-dihydroquinoline] the Emax was 87%.
In the case of `COc1cc(OC(=O)c2ccccc2)ccc1-c1ccc2c(c1COC(=O)c1ccc(C)s1)C(C)=CC(C)(C)N2` [Compound 1-142, 6-(4-Benzoyloxy-2-methoxyphenyl)-5-(5-methylthiophen-2-ylcarbonyloxymethyl)-2,2,4-trimethyl-1,2-dihydroquinoline], the Emax is reported as 97%.
`COc1ccc([N+](=O)[O-])cc1OCc1c(-c2ccc(OC(=O)c3ccsc3)cc2OC)ccc2c1C(C)=CC(C)(C)N2` [Compound 1-81, 5-(2-Methoxy-5-nitrophenoxymethyl)-6-[2-methoxy-4-(thiophen-3-ylcarbonyloxy)phenyl]-2,2,4-trimethyl-1,2-dihydroquinoline] showed an Emax of 76%.
For `COc1cc(OC(=O)c2ccco2)ccc1-c1ccc2c(c1COC(=O)c1ccc(Br)s1)C(C)=CC(C)(C)N2` [Compound 1-162, 5-(5-Bromothiophen-2-ylcarbonyloxymethyl)-6-[4-(furan-2-ylcarbonyloxy)-2-methoxyphenyl]-2,2,4-trimethyl-1,2-dihydroquinoline], the Emax was 81%.
With `COc1cc(OC(=O)c2cccnc2OC)ccc1-c1ccc2c(c1CNc1cc(F)ccc1C)C(C)=CC(C)(C)N2` [Compound 1-125, 5-(5-Fluoro-2-methylphenylaminomethyl)-6-[2-methoxy-4-(2-methoxypyridin-3-ylcarbonyloxy)phenyl]-2,2,4-trimethyl-1,2-dihydroquinoline] the Emax was 81%.
In the case of `COc1cc(OS(=O)(=O)C2CC2)ccc1-c1ccc2c(c1COc1cc(F)ccc1C)C(C)=CC(C)(C)N2` [Compound 4-14, 6-(4-Cyclopropylsulfonyloxy-2-methoxyphenyl)-5-(5-fluoro-2-methylphenoxymethyl)-2,2,4-trimethyl-1,2-dihydroquinoline], the Emax is reported as 80%.
For `COc1cc(OC(=O)c2cccnc2)ccc1-c1ccc2c(c1COc1cc(F)ccc1C)C(C)=CC(C)(C)N2` [Compound 1-8, 5-(5-Fluoro-2-methylphenoxymethyl)-6-[2-methoxy-4-(pyridin-3-ylcarbonyloxy)phenyl]-2,2,4-trimethyl-1,2-dihydroquinoline], the Emax was 94%.
With `CCCS(=O)(=O)Oc1ccc(-c2ccc3c(c2COC(=O)c2ccc(C)s2)C(C)=CC(C)(C)N3)c(OC)c1` [Compound 4-27, 6-(2-Methoxy-4-propylsulfonyloxyphenyl)-5-(5-methylthiophen-2-ylcarbonyloxymethyl)-2,2,4-trimethyl-1,2-dihydroquinoline] the Emax was 101%.
Molecule `COc1cc(OC(=O)c2ccc(C)nc2)ccc1-c1ccc2c(c1COC(=O)c1ccc(C)s1)C(C)=CC(C)(C)N2` [Compound 1-128, 6-[2-Methoxy-4-(6-methylpyridin-3-ylcarbonyloxy)phenyl]-5-(5-methylthiophen-2-ylcarbonyloxymethyl)-2,2,4-trimethyl-1,2-dihydroquinoline] has an Emax of 79%.
Work on `COc1ccccc1C(=O)Oc1ccc(-c2ccc3c(c2COc2cc(F)ccc2C)C(C)=CC(C)(C)N3)c(OC)c1` [Compound 1-6, 5-(5-Fluoro-2-methylphenoxymethyl)-6-[2-methoxy-4-(2-methoxybenzoyloxy)phenyl]-2,2,4-trimethyl-1,2-dihydroquinoline] yielded an Emax of 93%.
In the case of `COc1ccccc1NCc1c(-c2ccc(OC(=O)c3cccs3)cc2OC)ccc2c1C(C)=CC(C)(C)N2` [Compound 1-104, 5-(2-Methoxyphenylaminomethyl)-6-[2-methoxy-4-(thiophen-2-ylcarbonyloxy)phenyl]-2,2,4-trimethyl-1,2-dihydroquinoline], the Emax is reported as 84%.
`COc1ccc(C(=O)OCc2c(-c3ccc(OC(=O)c4cccnc4)cc3OC)ccc3c2C(C)=CC(C)(C)N3)cc1` [Compound 1-157, 5-(4-Methoxybenzoyloxymethyl)-6-[2-methoxy-4-(pyridin-3-ylcarbonyloxy)phenyl]-2,2,4-trimethyl-1,2-dihydroquinoline] showed an Emax of 76%.
In the case of `COc1cc(OC(=O)c2ccc(Cl)cc2)ccc1-c1ccc2c(c1COC(=O)c1ccc(C)s1)C(C)=CC(C)(C)N2` [Compound 1-141, 6-[4-(4-Chlorobenzoyloxy)-2-methoxyphenyl]-5-(5-methylthiophen-2-ylcarbonyloxymethyl)-2,2,4-trimethyl-1,2-dihydroquinoline], the Emax is reported as 78%.
`COc1cc(OS(=O)(=O)CCC(F)(F)F)ccc1-c1ccc2c(c1COC(=O)c1ccc(C)s1)C(C)=CC(C)(C)N2` [Compound 4-26, 6-[2-Methoxy-4-(3,3,3-trifluoropropylsulfonyl-oxy)phenyl]-5-(5-methylthiophen-2-yl-carbonyloxymethyl)-2,2,4-trimethyl-1,2-dihydroquinoline] was tested, and the Emax was 77%.
`COc1ccccc1NCc1c(-c2ccc(OC(=O)c3ccccc3SC)cc2OC)ccc2c1C(C)=CC(C)(C)N2` [Compound 1-111] gave an Emax of 81%.
With `CCS(=O)(=O)Oc1ccc(-c2ccc3c(c2COc2cc([N+](=O)[O-])ccc2C)C(C)=CC(C)(C)N3)c(OC)c1` [Compound 4-11, 6-(4-Ethylsulfonyloxy-2-methoxyphenyl)-5-(2-methyl-5-nitrophenoxymethyl)-2,2,4-trimethyl-1,2-dihydroquinoline] the Emax was 75%.
`COc1cc(OC(=O)c2ccccc2SC)ccc1-c1ccc2c(c1COC(=O)c1ccc(C)s1)C(C)=CC(C)(C)N2` [Compound 1-151] gave an Emax of 90%.
With `CCCS(=O)(=O)Oc1ccc(-c2ccc3c(c2COc2cc([N+](=O)[O-])ccc2C)C(C)=CC(C)(C)N3)c(OC)c1` [Compound 4-12, 6-(2-Methoxy-4-propylsulfonyloxyphenyl)-5-(2-methyl-5-nitrophenoxymethyl)-2,2,4-trimethyl-1,2-dihydroquinoline] the Emax was 77%.
In the case of `CCN(CCN(C)C)C(=O)Oc1ccc(-c2ccc3c(c2COc2cc(F)ccc2C)C(C)=CC(C)(C)N3)c(OC)c1` [Compound 6-20, 6-[4-[N-(2-Dimethylaminoethyl)-N-ethylaminocarbonyloxy]-2-methoxyphenyl]-5-(5-fluoro-2-methylphenoxymethyl)-2,2,4-trimethyl-1,2-dihydroquinoline], the Emax is reported as 79%.
With `COc1cc(OC(=O)c2ccnc(Cl)c2)ccc1-c1ccc2c(c1COc1cc(F)ccc1C)C(C)=CC(C)(C)N2` [Compound 1-68, 6-[4-(2-Chloropyridin-4-ylcarbonyloxy)-2-methoxyphenyl]-5-(5-fluoro-2-methylphenoxymethyl)-2,2,4-trimethyl-1,2-dihydroquinoline] the Emax was 72%.
With `COc1cc(OC(=O)c2ccccc2F)ccc1-c1ccc2c(c1COC(=O)c1ccc(C)s1)C(C)=CC(C)(C)N2` [Compound 1-144, 6-[4-(2-Fluorobenzoyloxy)-2-methoxyphenyl]-5-(5-methylthiophen-2-ylcarbonyloxymethyl)-2,2,4-trimethyl-1,2-dihydroquinoline] the Emax was 94%.
`COc1cc(OC(=O)c2ccncc2)ccc1-c1ccc2c(c1COC(=O)c1ccc(C)s1)C(C)=CC(C)(C)N2` [Compound 1-156, 6-[2-Methoxy-4-(pyridin-4-ylcarbonyloxy)phenyl]-5-(5-methylthiophen-2-ylcarbonyloxymethyl)-2,2,4-trimethyl-1,2-dihydroquinoline] gave an Emax of 90%.
Work on `COC(=O)c1cccc(C(=O)Oc2ccc(-c3ccc4c(c3COc3cc(F)ccc3C)C(C)=CC(C)(C)N4)c(OC)c2)c1` [Compound 1-54, 5-(5-Fluoro-2-methylphenoxymethyl)-6-[2-methoxy-4-(3-methoxycarbonylbenzoyloxy)phenyl]-2,2,4-trimethyl-1,2-dihydroquinoline] yielded an Emax of 75%.
In the case of `COc1cc(OC(=O)c2occc2C)ccc1-c1ccc2c(c1COC(=O)c1ccc(C)s1)C(C)=CC(C)(C)N2` [Compound 1-171, 6-[2-Methoxy-4-(3-methylfuran-2-ylcarbonyloxy)phenyl]-5-(5-methylthiophen-2-ylcarbonyloxymethyl)-2,2,4-trimethyl-1,2-dihydroquinoline], the Emax is reported as 87%.
